Test results published in patent publication US20150305334A1, “USE OF SUBSTITUTED 1-(ARYL ETHYNYL)-, 1-(HETEROARYL ETHYNYL)-, 1-(HETEROCYCLYL ETHYNYL)- AND 1-(CYCLOALKENYL ETHYNYL)-CYCLOHEXANOLS AS ACTIVE AGENTS AGAINST ABIOTIC PLANT STRESS” (BAYER CROPSCIENCE AG, priority 2012, published 2015).

Legend:
Assay type in all cases: in vivo
Brassica napus = test: Drought stress test on greenhouse crop plants, spray application, efficacy vs untreated stressed control (BRSNS); conditions: dosage 250 g/ha
Protocol: (§1) Seeds of monocotyledonous and dicotyledonous crop plants were laid out in sandy loam in wood-fiber pots, covered with soil or sand and cultivated in a greenhouse under good growth conditions. The test plants were treated at the early leaf stage (BBCH10-BBCH13). To assure uniform water supply before commencement of stress, the potted plants were supplied with water by dam irrigation prior to substance application. The compounds according to the invention, formulated in the form of wettable powders (WP), were sprayed onto the green parts of the plants as an aqueous suspension at an equivalent water application rate of 600 l/ha with addition of 0.2% wetting agent (e.g. agrotin). Substance application was followed immediately by stress treatment of the plants. For this purpose, the pots were transferred into plastic inserts in order to prevent them from subsequently drying out too quickly. […] After the recovery phase had ended, the intensities of damage were analyzed in visual comparison to untreated, unstressed controls of the same age. The intensity of damage was first recorded as a percentage (100%=plants have died, 0%=like control plants). […] EF: efficacy (%) DVus: damage value of the untreated, stressed control DVts: damage value of the plants treated with test compound In each trial, 3 pots per crop and dosage were treated and evaluated; the resulting efficacies are thus averages. […]

Zea mays = test: Drought stress test on greenhouse crop plants, spray application, efficacy vs untreated stressed control (ZEAMX); conditions: dosage 25 g/ha
Protocol: as §1

Triticum aestivum = test: Drought stress test on greenhouse crop plants, spray application, efficacy vs untreated stressed control (TRZAS); conditions: dosage 25 g/ha
Protocol: as §1

Row | SMILES | EF (BRSNS) (Brassica napus) [%] | EF (ZEAMX) (Zea mays) [%] | EF (TRZAS) (Triticum aestivum) [%]
1 | CC1CCCC(C)(C)C1(O)C#Cc1ccccc1C(=O)O (centres unmarked) [I.1-107, 2-[(1-Hydroxy-2,2,6-trimethylcyclohexyl)ethynyl]benzoic acid] | >5 | – | –
2 | COC(=O)c1ccccc1C#CC1(O)C(C)CCCC1C (centres unmarked) [I.13-116, Methyl 2-[(1-hydroxy-2,6-dimethylcyclohexyl)ethynyl]benzoate] | – | >5 | –
3 | COC(=O)c1ccccc1C#CC1(O)C(C)CCCC1(C)C (centres unmarked) [I.1-116, Methyl 2-[(1-hydroxy-2,2,6-trimethylcyclohexyl)ethynyl]benzoate] | >5 | >5 | >5
